Measurements: patent US11345694B2, “Antibacterial compounds” (DISCUVA LTD., priority 2017, dated 2022)
≈ marks a conversion by molar mass, not a printed value. Where two headings read alike, the source gives them in different places.

What was measured:
[1] = test system: E. coli NCTC 13441 (UPEC); assay: MIC broth microdilution; assay type: cell-based, Escherichia coli; conditions: for MIC: Escherichia coli, NCTC13441
Procedure, shortened: (§1)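 Compounds are diluted two-fold across a final range of 0.39-200 μM, keeping DMSO no higher than 2% final. Bacteria in cation-adjusted Müller-Hinton broth are then incubated at 37° C under ambient atmosphere for 20-24 h. The lowest growth-inhibiting concentration gives the MIC.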

[2] = test system: Acinetobacter baumannii ATCC 17978 (AB); assay: MIC broth microdilution; assay type: cell-based; conditions: for MIC: ATCC17978
Procedure, shortened: as §1

[3] = test system: Escherichia coli K12 (EC); assay: MIC broth microdilution; assay type: cell-based
Procedure, shortened: as §1

[4] = test system: Klebsiella pneumoniae ATCC 10031 (KP2); assay: MIC broth microdilution; assay type: cell-based; conditions: for MIC: ATCC10031
Procedure, shortened: (§2)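 Two-fold dilution series, 0.39-200 μM final, max 2% DMSO; CA-MHB; 37° C, ambient air, 20-24 h; MIC = lowest conc. inhibiting visible growth. CLSI broth microdilution.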

[5] = test system: Klebsiella pneumoniae ATCC 51504 (KP4); assay: MIC broth microdilution; assay type: cell-based; conditions: ATCC51504
Procedure, shortened: as §1

[6] = test system: Pseudomonas aeruginosa ATCC 33359 (PA); assay: MIC broth microdilution; assay type: cell-based; conditions: for MIC: ATCC33359
Procedure, shortened: as §1

[7] = test system: Staphylococcus aureus ATCC 35556 (SA); assay: MIC broth microdilution; assay type: cell-based; conditions: for MIC: ATCC35556
Procedure, shortened: as §1

[8] = test system: K. pneumoniae ATCC 700603 (KP3); assay: MIC broth microdilution; assay type: cell-based, Klebsiella pneumoniae; conditions: for MIC: Klebsiella pneumoniae, ATCC700603
Procedure, shortened: as §2

[9] = test system: K. pneumoniae H151440671 (KP10); assay: MIC broth microdilution; assay type: cell-based, Klebsiella pneumoniae; conditions: for MIC: Klebsiella pneumoniae
Procedure, shortened: as §2

[10] = test system: K. pneumoniae H154020667 (KP6); assay: MIC broth microdilution; assay type: cell-based, Klebsiella pneumoniae; conditions: for MIC: Klebsiella pneumoniae
Procedure, shortened: as §2

[11] = test system: K. pneumoniae H154300688 (KP9); assay: MIC broth microdilution; assay type: cell-based, Klebsiella pneumoniae; conditions: for MIC: Klebsiella pneumoniae
Procedure, shortened: as §2

[12] = test system: K. pneumoniae H154600588 (KP8); assay: MIC broth microdilution; assay type: cell-based, Klebsiella pneumoniae; conditions: for MIC: Klebsiella pneumoniae
Procedure, shortened: as §2

[13] = test system: K. pneumoniae H154640784 (KP7); assay: MIC broth microdilution; assay type: cell-based, Klebsiella pneumoniae; conditions: for MIC: Klebsiella pneumoniae
Procedure, shortened: as §2

[14] = test system: K. pneumoniae H154680676 (KP5); assay: MIC broth microdilution; assay type: cell-based, Klebsiella pneumoniae; conditions: for MIC: Klebsiella pneumoniae
Procedure, shortened: as §2

[15] = test system: K. pneumoniae NCTC 13438 (KP1); assay: MIC broth microdilution; assay type: cell-based, Klebsiella pneumoniae; conditions: for MIC: Klebsiella pneumoniae, NCTC13438
Procedure, shortened: as §2

[16] = test system: human hepatocarcinoma cell line ATCC HB-8065 (HepG2); assay: Human cell viability (CellTiter-Glo); assay type: cell-based; conditions: HepG2 cells, 24 h incubation, CellTiter-Glo luminescence, 0.2-100 μM, read-out: IC50 values against the HepG2 cell line
Procedure, shortened: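 HepG2 cells were seeded at 20,000 cells/well in MEM with 10% FBS and, after 24 h, exposed for 24 h at 37° C. to two-fold dilutions (final 0.2-100 μM) in MEM with 1% FBS and 1% DMSO. Viability was read by CellTiter-Glo luminescence, with IC50 from a 4-parameter logistic fit.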

SMILES | MIC [5] | MIC [1] | MIC [2] | MIC [3] | MIC [4] | MIC [6] | MIC [7] | MIC [8] | MIC [9] | MIC [10] | MIC [11] | MIC [12] | MIC [13] | MIC [14] | MIC [15] | IC50 ([16]; Homo sapiens) | also measured
Cc1cc(-c2[nH]c(N)nc2-c2ccc3c(c2)OCCO3)ccn1 [Example 32, 4-(2,3-Dihydrobenzo[b][1,4]dioxin-6-yl)-5-(2-methylpyridin-4-yl)-1H-imidazol-2-amine] | 1 to 10 µM (≈ 0.308 to 3.08 µg/mL) | – | – | – | – | – | – | – | – | – | – | – | – | – | – | – | MIC UPEC [1]: A (an MIC (μM) of less or equal to 1 is assigned the letter A); MIC AB [2]: D (a MIC of over 100 is assigned the letter D); MIC EC [3]: A (an MIC (μM) of less or equal to 1 is assigned the letter A); MIC KP2 [4]: A (an MIC (μM) of less or equal to 1 is assigned the letter A); MIC PA [6]: D (a MIC of over 100 is assigned the letter D); MIC SA [7]: D (a MIC of over 100 is assigned the letter D); MIC KP3 [8]: B (a MIC of from 1 to 10 is assigned the letter B); MIC KP10 [9]: B (a MIC of from 1 to 10 is assigned the letter B); MIC KP6 [10]: B (a MIC of from 1 to 10 is assigned the letter B); MIC KP9 [11]: B (a MIC of from 1 to 10 is assigned the letter B); MIC KP8 [12]: B (a MIC of from 1 to 10 is assigned the letter B); MIC KP7 [13]: B (a MIC of from 1 to 10 is assigned the letter B); MIC KP5 [14]: B (a MIC of from 1 to 10 is assigned the letter B); MIC KP1 [15]: B (a MIC of from 1 to 10 is assigned the letter B); IC50 [16]: > 100 µM
Cc1cc(-c2[nH]c(N)nc2-c2ccc3c(c2)N(S(C)(=O)=O)CCO3)ccn1 [Example 55, 5-(2-Methylpyridin-4-yl)-4-(4-(methylsulfonyl)-3,4-dihydro-2H-benzo[b][1,4]oxazin-6-yl)-1H-imidazol-2-amine] | 1 to 10 µM (≈ 0.385 to 3.85 µg/mL) | 1 to 10 µM (≈ 0.385 to 3.85 µg/mL) | > 100 µM | 1 to 10 µM (≈ 0.385 to 3.85 µg/mL) | ≤ 1 µM | > 100 µM | > 100 µM | 1 to 10 µM (≈ 0.385 to 3.85 µg/mL) | 1 to 10 µM (≈ 0.385 to 3.85 µg/mL) | 1 to 10 µM (≈ 0.385 to 3.85 µg/mL) | 1 to 10 µM (≈ 0.385 to 3.85 µg/mL) | 1 to 10 µM (≈ 0.385 to 3.85 µg/mL) | 1 to 10 µM (≈ 0.385 to 3.85 µg/mL) | 1 to 10 µM (≈ 0.385 to 3.85 µg/mL) | 10 to 100 µM (≈ 3.85 to 38.5 µg/mL) | > 100 µM | –

The next lines start with results.

MIC [5] | MIC [1] | MIC [2] | MIC [3] | MIC [4] | MIC [6] | MIC [7] | MIC [8] | MIC [9] | MIC [10] | MIC [11] | MIC [12] | MIC [13] | MIC [14] | MIC [15] | IC50 ([16]; Homo sapiens) | SMILES | also measured
1 to 10 µM (≈ 0.328 to 3.28 µg/mL) | ≤ 1 µM | > 100 µM | ≤ 1 µM | ≤ 1 µM | > 100 µM | > 100 µM | 1 to 10 µM (≈ 0.328 to 3.28 µg/mL) | 1 to 10 µM (≈ 0.328 to 3.28 µg/mL) | 1 to 10 µM (≈ 0.328 to 3.28 µg/mL) | 1 to 10 µM (≈ 0.328 to 3.28 µg/mL) | 10 to 100 µM (≈ 3.28 to 32.8 µg/mL) | 1 to 10 µM (≈ 0.328 to 3.28 µg/mL) | 1 to 10 µM (≈ 0.328 to 3.28 µg/mL) | 1 to 10 µM (≈ 0.328 to 3.28 µg/mL) | > 100 µM | Nc1nc(-c2ccc3c(c2)NCCO3)c(-c2ccnc(Cl)c2)[nH]1 [Example 45, 5-(2-Chloropyridin-4-yl)-4-(3,4-dihydro-2H-benzo[b][1,4]oxazin-6-yl)-1H-imidazol-2-amine] | –
≤ 1 µM | 1 to 10 µM (≈ 0.325 to 3.25 µg/mL) | > 100 µM | ≤ 1 µM | ≤ 1 µM | > 100 µM | > 100 µM | 1 to 10 µM (≈ 0.325 to 3.25 µg/mL) | 1 to 10 µM (≈ 0.325 to 3.25 µg/mL) | ≤ 1 µM | 1 to 10 µM (≈ 0.325 to 3.25 µg/mL) | 1 to 10 µM (≈ 0.325 to 3.25 µg/mL) | 1 to 10 µM (≈ 0.325 to 3.25 µg/mL) | ≤ 1 µM | 1 to 10 µM (≈ 0.325 to 3.25 µg/mL) | > 100 µM | Cc1cc(-c2[nH]c(N)nc2-c2cc(F)c3c(c2)NCCO3)ccn1 [Example 49, 4-(8-Fluoro-3,4-dihydro-2H-benzo[b][1,4]oxazin-6-yl)-5-(2-methylpyridin-4-yl)-1H-imidazol-2-amine] | –
≤ 1 µM | ≤ 1 µM | > 100 µM | ≤ 1 µM | ≤ 1 µM | > 100 µM | > 100 µM | 1 to 10 µM (≈ 0.325 to 3.25 µg/mL) | ≤ 1 µM | ≤ 1 µM | 1 to 10 µM (≈ 0.325 to 3.25 µg/mL) | 1 to 10 µM (≈ 0.325 to 3.25 µg/mL) | 1 to 10 µM (≈ 0.325 to 3.25 µg/mL) | ≤ 1 µM | 1 to 10 µM (≈ 0.325 to 3.25 µg/mL) | > 100 µM | Cc1cc(-c2[nH]c(N)nc2-c2cc3c(cc2F)OCCN3)ccn1 [Example 52, 4-(7-Fluoro-3,4-dihydro-2H-benzo[b][1,4]oxazin-6-yl)-5-(2-methylpyridin-4-yl)-1H-imidazol-2-amine] | –
